{
  "source": "patent US20200276174A1",
  "about": "“CYCLIN-DEPENDENT KINASE INHIBITORS IN COMBINATION WITH ANTHRACYCLINES FOR TREATMENT OF CANCER” (TOLERO PHARMACEUTICALS, INC., priority 2018, published 2020)",
  "key": {"[1]": {"conditions": "statement only; prodrugs described in WO 2016/187316; cited from earlier work"}, "[2]": {"tested_on": "previously untreated AML", "conditions": "for MRD− (%) / MRD−, number of patients: of all patients evaluable for response", "protocol": "The starting dose of alvocidib is 20 mg/m^2 as a 30-minute intravenous (IV) bolus followed by 30 mg/m^2 over 4 hours as an IV infusion administered daily on Days 1-3 of induction. The dose of alvocidib administered in the IV infusion is escalated in 10 mg/m^2 increments to 60 mg/m^2 to determine the maximum tolerated dose and to identify any dose limiting toxicity.\nBeginning on Day 5, cytarabine is administered as a 100 mg/m^2/day continuous IV infusion for seven consecutive days (Days 5-11) plus daunorubicin administered at a bolus dosage of 60 mg/m^2 IV on Days 5-7.\nThe key eligibility criteria were: ages 18-65 years, previously untreated AML, ECOG PS 0-2, and no major organ dysfunction. Treatment consisted of increasing dose levels of alvocidib starting at 20 mg/m^2 as a 30-minute IV bolus followed by 30 mg/m^2 over 4 hours on days 1-3, cytarabine 100 mg/m^2/day by continuous IV infusion on days 5-11, followed by (e.g., followed about 30 minutes later by) daunorubicin 60 mg/m^2 IV on days 5-7. Dose escalation portion was assessed by standard 3+3 design. All patients received a day 14 bone marrow biopsy. Reinduction therapy with alvocidib (same dose as induction) days 1-3, followed by cytarabine 100 mg/m^2/day continuous IV on days 5-9, and daunorubicin 45 mg/m^2 IV days 5-6 was recommended in patients with >10% and >5% cellularity and blasts, respectively."}, "[3]": {"tested_on": "MV4-11 AML xenograft", "experiment": "MV4-11 AML xenograft model", "format": "in vivo, female athymic nude mice", "description": "Alvocidib with a cytarabine and daunorubicin regimen were tested in vivo in the MV4-11 AML xenograft model using female athymic nude mice.\nACD (alvocidib+cytarabine+daunorubicin) is an active regimen in MV4-11 AML xenografts. (A) Tumor volume measurements show decreases following the sequential dosing of alvocidib (qdx2), cytarabine (qdx2), and daunorubicin (qdx1). This five day cycle was repeated twice. […] Doses indicated in mg/kg.\nTreatment of alvocidib (1.25 mg/kg) yielded 60.0% TGI."}, "[4]": {"tested_on": "AML cell lines (OCI-AML3, U937, Molm-13, MV4-11)", "experiment": "72-hour viability assay using CellTiter-Glo, single agents in AML cell lines", "format": "cell-based", "conditions": "for IC50: read-out: single agent IC50 values; for comparison of IC50s/activity across cell lines: single agent", "description": "(A) OCI-AML3, (B) U937, (C) Molm-13, and (D) MV4-11 cells were treated with alvocidib, cytarabine, or daunorubicin, as single agents, in viability assays using CellTiter-Glo according to manufacturer protocol."}, "[5]": {"tested_on": "MCL-1 expression in MV4-11 cells", "experiment": "MCL-1 expression during the alvocidib+cytarabine+daunorubicin regimen modeled in vitro", "format": "cell-based", "conditions": "alvocidib 80 nM, washed out prior to cytarabine (100 nM) addition, daunorubicin 3 nM, in sequence", "description": "MCL-1 expression during the alvocidib+cytarabine+daunorubicin regimen was modeled in vitro. MV4-11 cells were treated with alvocidib (80 nM), cytarabine (100 nM), or daunorubicin (3 nM), in the sequence shown. Alvocidib (or palbociclib) was washed out prior to cytarabine addition."}, "[6]": {"conditions": "Intermediate- and High-risk, evaluable for MRD status N = 9, alvocidib plus 7+3"}, "[7]": {"conditions": "Intermediate- and High-risk, evaluable for response N = 10, alvocidib plus 7+3"}, "[8]": {"conditions": "Intermediate- and High-risk, alvocidib plus 7+3"}, "[9]": {"conditions": "72-hour viability, CellTiter-Glo, one range printed for all three agents over OCI-AML3, U937, Molm-13, MV4-11"}},
  "note": "“And” between values parts separate entries of the source, which are not always exact repeats. Equal values may be shown once. Read-outs that look alike come from different tables or passages of the source.",
  "data": [
    {"smiles": "CN1CC[C@H](c2c(OP(=O)(O)O)cc(O)c3c(=O)cc(-c4ccccc4Cl)oc23)[C@H](O)C1", "note": "[Structural Formula I]", "values": [
      {"measurement": "oral bioavailability", "setting": "[1]", "result": "orally bioavailable"}
    ]},
    {"smiles": "CN1CC[C@H](c2c(O)cc(O)c3c(=O)cc(-c4ccccc4Cl)oc23)[C@H](O)C1", "note": "[alvocidib]", "values": [
      {"measurement": "MRD− (%)", "setting": "[2]; All Risks, alvocidib plus 7+3", "result": "(67) %"},
      {"measurement": "MRD−, number of patients", "setting": "[2]; All Risks, alvocidib plus 7+3", "result": "10/15"},
      {"measurement": "MRD− Evaluable, number of patients", "setting": "[2]; All Risks, patients evaluable for MRD status N = 14, alvocidib plus 7+3", "result": "10/14"},
      {"measurement": "CR/CRi, number of patients", "setting": "[2]; All Risks, patients evaluable for response N = 15, alvocidib plus 7+3, all dose levels", "result": "12/15 and 12"},
      {"measurement": "MRD− Evaluable (%)", "setting": "[2]; [6]", "result": "(56) %"},
      {"measurement": "MRD− Evaluable, number of patients", "setting": "[2]; [6]", "result": "5/9"},
      {"measurement": "CR/CRi (%)", "setting": "[2]; [7]", "result": "(70) %"},
      {"measurement": "CR/CRi, number of patients", "setting": "[2]; [7]", "result": 7},
      {"measurement": "MRD− (%)", "setting": "[2]; [8]", "result": "(50) %"},
      {"measurement": "MRD−, number of patients", "setting": "[2]; [8]", "result": "5/10"},
      {"measurement": "MTD, IV bolus part", "setting": "[2]; human, in vivo, iv", "result": 30, "unit": "mg/m^2"},
      {"measurement": "MTD, infusion part", "setting": "[2]; human, in vivo, iv", "result": 60, "unit": "mg/m^2"},
      {"measurement": "MRD Status", "setting": "[2]; per patient, alvocidib dose level 20, 30 mg/m^2 (bolus, infusion) days 1-3, then 7+3", "result": "Negative"},
      {"measurement": "MRD Status", "setting": "[2]; per patient, alvocidib dose level 30, 40 mg/m^2 (bolus, infusion) days 1-3, then 7+3", "result": "Negative"},
      {"measurement": "Best Response", "setting": "[2]; per patient, alvocidib dose level 30, 60 mg/m^2 (bolus, infusion) days 1-3, then 7+3, PD = progression of disease", "result": "CRi"},
      {"measurement": "tumor growth inhibition (TGI)", "setting": "[3]; alvocidib 1.25 mg/kg", "result": 60.0, "unit": "%"},
      {"measurement": "IC50", "setting": "[4]; [9]", "result": "2.2 to 567", "unit": "nM"},
      {"measurement": "MCL-1 expression", "setting": "[5]", "result": "suppresses MCL-1 expression throughout the treatment regimen of cytarabine and daunorubicin"}
    ]},
    {"smiles": "Nc1ccn([C@@H]2O[C@H](CO)[C@@H](O)[C@@H]2O)c(=O)n1", "note": "[cytarabine]", "values": [
      {"measurement": "tumor growth inhibition (TGI)", "setting": "[3]; single agent cytarabine 60 mg/kg", "result": 48.5, "unit": "%"},
      {"measurement": "IC50", "setting": "[4]; [9]", "result": "2.2 to 567", "unit": "nM"},
      {"measurement": "comparison of IC50s/activity across cell lines", "setting": "[4]; 72-hour viability", "result": "differing activities in Molm-13, in comparison to OCI-AML3"}
    ]},
    {"smiles": "COc1cccc2c1C(=O)c1c(O)c3c(c(O)c1C2=O)C[C@@](O)(C(C)=O)C[C@@H]3O[C@H]1C[C@H](N)[C@H](O)[C@H](C)O1", "note": "[daunorubicin]", "values": [
      {"measurement": "tumor growth inhibition (TGI)", "setting": "[3]; single agent daunorubicin 0.5 mg/kg", "result": 21.1, "unit": "%"},
      {"measurement": "comparison of IC50s/activity across cell lines", "setting": "[4]; 72-hour viability", "result": "differing activities in Molm-13, in comparison to OCI-AML3"},
      {"measurement": "IC50", "setting": "[4]; 72 h", "result": "2.2 to 567", "unit": "nM"}
    ]}
  ]
}
